`Cc1ccc(-c2cc(C(F)(F)F)nn2-c2ccc(F)cc2F)cc1` [Example 2C, 1-(2,4-Difluorophenyl)-5-(4-methylphenyl)-3-(trifluoromethyl)pyrazole] returned a melting point of 83 °C.

As to `Cc1ccc(-c2cc(C(F)(F)F)nn2-c2cc(C)ccc2F)cc1` [Example 2H, 1-(2-Fluoro-5-methylphenyl)-5-(4-methylphenyl)-3-(trifluoromethyl)pyrazole], the melting point was 45 °C.

Source of the values: patent publication US6403629B2, “Heterocyclic compounds for therapeutic use” (J.B. Chemical and Pharmaceuticals Limited, priority 2000, dated 2002).
